Test results from patent US20230107216A1, “PANTETHEINE DERIVATIVES AND USES THEREOF” (Comet Therapeutics, Inc., priority 2018, published 2023).
Like-named read-outs stand apart in the source and are kept apart here.

How the values were obtained:
[1] = Deuterated and endogenous Coenzyme A in tissues after single and multiple dosing to vitamin B5-deprived mice (LC-MS/MS); type: in vivo, C57BL/6N mice
Description: Example 22: Determining Deuterated and Endogenous Coenzyme A in Various Tissues after Single and Multiple Dosing of Compound 1216 to Vitamin B5-Deprived Male C57BL/6N Mice
C57BL6/J male mice were placed on a Vitamin B5 deprived diet for 2 weeks prior to the start of dosing with Compound 1216, single or multiple dosing with either IV or oral administration. […]
The test item and vehicle were administered to the appropriate animals via intravenous (slow bolus) injection to the tail vein (Groups 1-5). In Group 6 test item was administered via oral gavage. The dose volume for each animal was based on the most recent body weight measurement. The animals were temporarily restrained for dose administration and were not sedated. The dose was given using a disposable needle and syringe (intravenous administration) or a stainless steel tube (oral gavage). The dosing formulations were stirred continuously during dose administration, when possible.
Tissue samples were directly removed after sacrifice, together with plasma and CSF and immediately snap frozen in liquid nitrogen and stored at −80° C. […].
Ultrapure water (UPW) was added to the tissue in a 3:1 ratio (e.g. 1 gr tissue+3 ml UPR) and homogenized for 2 minutes at 30/s with 3 beads using a bead mill. Samples were placed on ice and 200 mg weighed in a 2 ml PP tube. 20 μL 50 mM TCEP was added to the sample and vortexed and placed on ice water for 30 minutes. Subsequently 100 μL Perchloric acid was added and the samples was again vortexed and centrifuged for 5 min at 13000 ref (4° C.). Then 225 μL of the supernatant was transferred to a 1.5 mL PP tube. Then 50 μL 3M KOH was added, vortexed and incubated for 2h on ice water. Then 50 μL 3M HCl was added and again vortexed and centrifuged for 5 min at 13000 rcf (4° C.). 100 μL of the supernatant was transferred to a 1.5 mL PP tube, 150 μL UPW was added, and the samples was again vortexed. Then 200 μL of the supernatant was transferred to a 96-wells plate and the samples were ready for measurement. […]

[2] = tested on: primary fibroblasts (healthy controls and PA, MMA, BCKDK, PDH, VLCAD, LS, PC, GA, VLCFA, KSS, FXN, HD); assay: Measurement of ROS (H2DCFDA) in primary fibroblasts; type: cell-based, human; details: Homo sapiens, Fibroblast, BCKD GM00649, procedure Example 812, Assay Condition C
Outline: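 Patient and healthy-control primary fibroblasts switched to supplemented DMEM 24 h before assay, then treated with compound (10 μM) plus H2DCFDA (22 μM) for 2 h (PA, MMA lines) or 24 h (other lines). Kinetic fluorescence at 492/527 nm over 60 min; only live cells analysed.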

[3] = tested on: monocyte-derived M1 macrophages; assay: M1 differentiation assay (macrophage TNFα, IL6, IL10 ELISA, FACS); type: cell-based, human; details: Homo sapiens, Macrophage, 10 uM
Outline: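 CD14+ human blood monocytes (100,000) differentiated 6 days with 10 ng/ml GM-CSF plus compound at 10 or 50 μM, refreshed days 2 and 4. Matured 24 h with GM-CSF, IFNγ, LPS plus compound. Supernatant TNFα, IL6, IL10 by ELISA; FACS M1 phenotype CD86+CD68+CD163−.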

[4] = Treg differentiation assay; type: cell-based; details: human
Description: Naïve CD4+ T cells (Stemcell, 17555) were isolated from PBMC and placed (20,000 cells/well) in 10 μg/ml anti-CD3 antibody (eBioscience, 16-0037-85) pre-coated 96-well flat bottom plate (Eppendorf, Cat #30730119) for 3 hours at 37° C. in an X-VIVO15 medium (Lonza, 04-418Q) supplemented with 15% FBS (Hyclone SV30087.03) and 1% Penicillin-Streptomycin (Hyclone, SV30010). Treg induction cocktail was added including 2 μg/ml anti-CD28 (eBioscience 16-0289-85), 20 ng/ml IL-2 (R&D, 202-IL-050) 0.2 ng/ml TGF-β1 (Peprotech, 100-21-50) in the presence of the compounds at 10 and 50 μM dose. On day 3 half of the medium, was refreshed with Treg differentiation cocktail as above and compounds (10 and 50 μM). On day 5 cells were collected and the following staining were performed: live/dead (Invitrogen, L34963), and Foxp3/Transcription Factor Staining Buffer Set (EBioscience, 00-5523-00), mouse anti-human FoxP3 (BD, 560046) or mouse IgG1, κIsotype control (BD, 555749) and analyzed by FACS (BD LSR Fortessa, 853492).

HepG2 cells = assay: MitoBiogenesis In-Cell ELISA (COX-I, SDH-A); type: cell-based; details: Homo sapiens, 168 h, 10 uM, 7 days, read-out: % increase in Mitochondrial Biogenesis
Excerpt: We determined the effect of compounds of the present disclosure on the levels of two mitochondrial proteins using MitoBiogenesis™ In-Cell ELISA Kit (Abcam ab110216) according to manufacturer's instructions. The two proteins are each subunits of a different oxidative phosphorylation enzyme complex, one protein being subunit I of Complex IV (COX-1), which is mitochondrial (mt)DNA-encoded, and the other being the 70 kDa subunit of Complex II (SDH-A), which is nuclear (n)DNA-encoded. Complex IV includes several proteins which are encoded in the mitochondrion, while the proteins of Complex II are entirely encoded in the nucleus. HepG2 cells (ATCC, HB-8065) were cultured (5% CO2 at 37° C.) and plated in Poly-D-Lysine 384-Well plate (Corning, 356663) at a density of 40,000 cells/mL in 50 μL. Culture and assay media consisted of DMEM (Gibco, 11995-065) supplemented with 1% Penicillin-Streptomycin and 10% FBS (Hyclone, SV30087.03). Cells were allowed to settle for 30 min at room temperature and further incubated overnight (37° C. and 5% CO2) for adherence. Next day, 50-5 μM of the negative control Chloramphenicol (Selleck, S1677), test compounds (50-10 μM) and vehicle DMSO (0.2%) were added at the recommended volumes to the 384-well plate for 7 days without media change using a Tecan compound dispenser. All the solutions and wash buffers were prepared and dispensed according to manufacturer's volumes for a 384-well plate format. Effects of compounds on mtDNA-encoded protein expression (COX-I) and nuclear DNA-encoded mitochondrial protein expression (SDH-A) were expressed as relative signal (nm) to vehicle of a n=2 per conditions.

Row | Levels of labeled CoA in liver and kidney ([1]; multiple IV doses) | Deuterated (labelled) CoA in cerebellum, cerebrum, remainder of the brain, liver, heart and kidney ([1]; multiple doses (either 3 or 5, IV and oral) of 102.8 mg/kg every 12 hours, vitamin B5-deprived mice, 15 minutes after last dose) | SMILES | Presence of deuterated (labelled) CoA in three brain regions and other organs over time ([1]; multiple IV doses, up to 24 hours after last dose) | inhibition at 10 µM ([2]; read-out: Decreased ROS by at least 10%) [%] | inhibition at 10 µM ([2]; read-out: Decreased ROS by at least 30%) [%] | activation at 10 µM ([3]; read-out: % Increase in IL-10 Secretion) [%] | inhibition at 10 µM ([3]; read-out: % decrease in Macrophage IL-6 Secretion) [%] | inhibition at 10 µM ([3]; read-out: % decrease in Macrophage TNFα Secretion) [%] | percent decrease in viable Treg cells at 5 days, 50 µM [4] [%] | activation at 10 µM (HepG2 cells) [%]
1 | high levels of labeled CoA | results in deuterated (labelled) CoA | [2H]C([2H])([2H])C(COP(=O)(O)O)(C(O)C(=O)NCCC(=O)NCCSC(C)=O)C([2H])([2H])[2H] (stereo not shown) [Compound 1216, S-acetyl-4′-phosphopantetheine-D6] | prolonged presence of deuterated (labelled) CoA |  |  |  |  |  |  | 
2 |  |  | C/C=C/C(=O)SCCNC(=O)CCNC(=O)[C@H](O)C(C)(C)CO [Compound 35, (R)—S-(2-(3-(2,4-dihydroxy-3,3-dimethylbutanamido)propanamido)ethyl) (E)-but-2-enethioate] |  | ≥ 10 | ≥ 30 | ≥ 30 | ≥ 30 | ≥ 30 | ≥ 30 | > 5
